The record followed here is ChEMBL document CHEMBL1201862, “PubChem BioAssay data set” (2004).

Some test systems named below: RXF 631; KM-20L2; SNB-78; XF498; M19-MEL; DMS-114; DLD-1; DMS-273; HOP-18.
Holding throughout (test): inhibition of tumour cell growth, NCI panel, 48 h

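96-well plates; 48 h exposure; 5 concentrations. Endpoints by linear interpolation between flanking doses. Not reached: highest tested concentration assigned. The concentration for 50% growth inhibition is given as GI50.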 Active and inactive are the calls of the source. Rule as the data show it: active = GI50 up to about 1.1 µM and inactive = higher.

Consider `CC(=O)N(O)Cc1ccccc1`, for which the GI50 in the assay on RXF 631, in the assay on KM-20L2, with SNB-78, with XF498, in the assay with M19-MEL and in the assay with DMS-114 was > 100 µM (inactive) throughout. In addition, the GI50 with DLD-1 was > 100 µM (inactive).
As for `CCOC(=O)C(C)(C)Oc1ccc2c(=O)cc(-c3ccc(Cl)cc3)oc2c1`, the GI50 in the assay on RXF 631, in the assay with KM-20L2, with XF498, with M19-MEL, in the assay on DMS-114 and in the assay on DLD-1 was > 100 µM (inactive) throughout. In addition, in the assay with DMS-273, the GI50 is > 100 µM (inactive).
On to `COC(=O)C(Cc1nc2ccccc2nc1O)C(=O)C(=O)Nc1ccc([N+](=O)[O-])cc1[N+](=O)[O-]` (centres undefined), for which the GI50 is 24.5 µM (inactive) in the assay on RXF 631; 20.4 µM (inactive) in the assay on KM-20L2; 38.4 µM (inactive) in the assay with SNB-78; 20.1 µM (inactive) with XF498; 16.6 µM (inactive) in the assay on M19-MEL; 16.8 µM (inactive) in the assay on HOP-18. The results for the GI50 with DMS-114, in the assay on DLD-1 and in the assay on DMS-273 were 16.1 µM (inactive), 19.5 µM (inactive) and 17.6 µM (inactive), respectively.
For `COc1ccc(OC(C(=O)O)c2ccccc2)c2c1CCCC2=O` (centres undefined), the GI50 in the assay with RXF 631, in the assay on KM-20L2, in the assay on SNB-78, with XF498, with M19-MEL and in the assay on HOP-18 was > 100 µM (inactive) throughout. Also, the GI50 in the assay on DMS-114, in the assay on DLD-1 and with DMS-273 was > 100 µM (inactive) each time.
Regarding `NCC(=O)OCN1C(=O)C2C3C=CC(C2C1=O)C1C2C(=O)N(COC(=O)CN)C(=O)C2C31` (centres undefined), the GI50 is 28.6 µM (inactive) in the assay on KM-20L2; 53.6 µM (inactive) in the assay with SNB-78; 31.4 µM (inactive) in the assay on XF498; 21 µM (inactive) with M19-MEL; 25.9 µM (inactive) in the assay with HOP-18; 16.2 µM (inactive) in the assay with DMS-114. Besides, the GI50 was 25.1 µM (inactive) in the assay with DLD-1 and 19.8 µM (inactive) in the assay on DMS-273.
Consider `c1ccc(C2=NOC3COc4ccccc4OCC23)cc1` (centres undefined), for which the GI50 with KM-20L2, in the assay on SNB-78, in the assay with DMS-114 and in the assay with DMS-273 was > 100 µM (inactive) throughout.
With `CCc1oc2ccc(OC)c3c2c1C=CC=C3`, the GI50 in the assay on SNB-78, in the assay with M19-MEL, in the assay on DLD-1 and in the assay on DMS-273 was > 100 µM (inactive) in each case.
On to `Cc1cccc2c1C/C(=C1\CCc3c(C)cccc31)C2=O`, for which the GI50 with RXF 631 is > 100 µM (inactive); in the assay with KM-20L2, > 100 µM (inactive); with M19-MEL, > 100 µM (inactive); in the assay on HOP-18, 38.3 µM (inactive); in the assay on DMS-114, > 100 µM (inactive); in the assay on DLD-1, > 100 µM (inactive). In addition, the GI50 in the assay with DMS-273 is > 100 µM (inactive).
For `Cc1ccc(S(=O)(=O)N/N=C\c2c3ccccc3[n+]([O-])c3ccccc23)cc1`, the GI50 with RXF 631 was 3.01 µM (inactive); in the assay on KM-20L2, 2.96 µM (inactive); in the assay with SNB-78, 6.71 µM (inactive); with M19-MEL, 7.67 µM (inactive); in the assay on HOP-18, 6.76 µM (inactive); in the assay on DMS-114 it was 3.37 µM (inactive). Besides, the GI50 in the assay with DLD-1 is 2.65 µM (inactive); in the assay with DMS-273, 3.41 µM (inactive).
Regarding `C=CCNC(=O)N(CCCCC(NC(C)=O)C(=O)NCc1ccccc1)Cc1ccccc1` (centres undefined), the GI50 in the assay with RXF 631, in the assay with KM-20L2, with XF498, with M19-MEL, in the assay with HOP-18 and with DMS-273 was > 100 µM (inactive) each time.
`CCCCC(C(=O)C(=O)NC1C2CC3CC(C2)CC1C3)C(=O)C(C)C` (centres undefined): the GI50 with RXF 631, with KM-20L2, in the assay with SNB-78, in the assay on XF498, in the assay with M19-MEL and with HOP-18 was > 100 µM (inactive) in each case. The GI50 in the assay with DMS-114 and in the assay with DMS-273 was > 100 µM (inactive) throughout.
In the case of `Cn1c(-c2ccccc2)c/c(=N\NS(C)(=O)=O)c2cc(S(=O)(=O)O)ccc21`, the GI50 in the assay with KM-20L2, in the assay with SNB-78, with XF498, with M19-MEL, in the assay on HOP-18 and with DMS-114 was > 100 µM (inactive) each time. Besides, the GI50 with DLD-1 and in the assay on DMS-273 was > 100 µM (inactive) each time.
Regarding `c1ccc(CN(Cc2ccccn2)Cn2cccn2)nc1`, the GI50 in the assay with RXF 631 is 38 µM (inactive); in the assay on KM-20L2, 51.5 µM (inactive); in the assay with SNB-78, > 100 µM (inactive); with XF498, 60 µM (inactive); in the assay on M19-MEL, 35 µM (inactive); with DMS-114, 22.1 µM (inactive). Moreover, the values for the GI50 in the assay with DLD-1 and with DMS-273 were 30.2 µM (inactive) and 35.7 µM (inactive), respectively.
Turning to `CCOC(=O)N1C/C(=C\c2ccc(N(C)C)cc2)C(=O)/C(=C/c2ccc(N(C)C)cc2)C1`, the GI50 with RXF 631, with KM-20L2, with SNB-78, in the assay on M19-MEL, in the assay with HOP-18 and in the assay on DMS-114 was > 100 µM (inactive) in each case. Also, the GI50 in the assay on DLD-1 and with DMS-273 was > 100 µM (inactive) in each case.
Regarding `NC(=S)N/N=C(/CC(=O)c1ccccc1)C(=O)Nc1ccc(Cl)c(Cl)c1`, the GI50 with KM-20L2 is > 100 µM (inactive); in the assay with SNB-78, > 100 µM (inactive); in the assay with M19-MEL, > 100 µM (inactive); with HOP-18, > 100 µM (inactive); in the assay on DMS-114, 71.6 µM (inactive); with DLD-1, 83.6 µM (inactive). The GI50 with DMS-273 is 76.6 µM (inactive).
Take `O=C(CO)CC(=O)C(=O)Nc1nc([N+](=O)[O-])cs1`: the GI50 in the assay with RXF 631, in the assay with KM-20L2, in the assay with SNB-78, in the assay with M19-MEL, with HOP-18 and with DMS-114 was > 100 µM (inactive) each time. The GI50 in the assay with DLD-1 and with DMS-273 was > 100 µM (inactive) in each case.
Take `CC1=C(c2cc(C(=O)Nc3cccc(C(F)(F)F)c3)ncn2)Sc2ccccc2N1`: the GI50 with KM-20L2, in the assay with XF498, in the assay with M19-MEL, with HOP-18, with DMS-114 and in the assay on DLD-1 was > 100 µM (inactive) throughout. Besides, in the assay with DMS-273, the GI50 was > 100 µM (inactive).
Take `O=S(=O)(c1ccccc1)C(CN1CCCCC1)S(=O)(=O)c1ccccc1`: the GI50 in the assay on KM-20L2, with XF498, in the assay on M19-MEL, in the assay on DLD-1 and in the assay with DMS-273 was > 100 µM (inactive) each time.
For `O=C(/C=C/c1ccccc1Cl)NC1C=Nc2ccc([N+](=O)[O-])cc2NC1` (centres undefined), the GI50 was > 100 µM (inactive) with KM-20L2; > 100 µM (inactive) in the assay on SNB-78; > 100 µM (inactive) in the assay with XF498; 53.2 µM (inactive) in the assay on M19-MEL; > 100 µM (inactive) in the assay with HOP-18; 48.4 µM (inactive) with DMS-114. Also, the GI50 in the assay with DLD-1 was 48.6 µM (inactive); with DMS-273, > 100 µM (inactive).
Regarding `Cc1ccc(NC(=O)C(=O)C(C(=O)c2ccc3ccccc3c2)C2OC(=O)c3ccccc32)cc1C` (centres undefined), the GI50 in the assay with KM-20L2 is 35.2 µM (inactive); with XF498, 3.29 µM (inactive); in the assay on M19-MEL, 6.34 µM (inactive); in the assay with HOP-18, 0.743 µM (active); in the assay with DMS-114 it was 9.35 µM (inactive); in the assay on DLD-1, 17.7 µM (inactive). In addition, the GI50 in the assay on DMS-273 is 5.87 µM (inactive).
With `CC(=O)[O-].Cc1ncc(CO)c(/C=N/NC(N)=S)c1[O-].[Zn+2]`, the GI50 in the assay with RXF 631, in the assay on SNB-78, with M19-MEL, with HOP-18, with DMS-114 and in the assay on DLD-1 was > 100 µM (inactive) throughout. Moreover, the GI50 in the assay with DMS-273 is > 100 µM (inactive).
For the molecule `COc1ccc(OC)c2[nH]c(Sc3c([N+](=O)[O-])ncn3C)nc12`, the GI50 in the assay with RXF 631 is 18.5 µM (inactive); in the assay with KM-20L2, 20.4 µM (inactive); in the assay on SNB-78, 20.9 µM (inactive); with XF498, 17.3 µM (inactive); with M19-MEL it was 20.6 µM (inactive); with DMS-114, 17.4 µM (inactive). The figures for the GI50 in the assay with DLD-1 and with DMS-273 were 20.6 µM (inactive) and 11.8 µM (inactive), respectively.
Consider `CCCCCCCOc1ccc(/C=C\c2cc[n+](CCCCCCCC[n+]3ccc(/C=C\c4ccc(OCCCCCCC)cc4)cc3)cc2)cc1`, for which the GI50 was 29.6 µM (inactive) with KM-20L2; > 100 µM (inactive) in the assay on SNB-78; 21.9 µM (inactive) in the assay with M19-MEL; 15.1 µM (inactive) in the assay on HOP-18; 21.6 µM (inactive) with DMS-114; 21.8 µM (inactive) in the assay with DLD-1. Further, the GI50 with DMS-273 is 4.3 µM (inactive).
On to `CCC1(O)C(=O)OCc2c1cc1n(c2=O)Cc2cc3cc(OC)c(OC)cc3nc2-1` (centres undefined), for which the GI50 in the assay on KM-20L2 is > 100 µM (inactive); in the assay on XF498, 34.3 µM (inactive); with HOP-18, 56.8 µM (inactive); in the assay on DMS-114, 12.8 µM (inactive).
